Data: publication PMC3560175 (Virology Journal, 2012)

Legend:
[1] = test system: wild type VSV-G pseudotyped HIV-1 vector; assay: microbe, parasite or virus in culture; assay type: cell-based; details: Human immunodeficiency virus 1, HEK-293T; 293T cells, average ± SD of two independent experiments in duplicate; read-out: Antiviral EC50 wt
[2] = test system: K103N RT mutant VSV-G pseudotyped HIV-1 vector; assay type: cell-based; details: read-out: Antiviral EC50 K103N
[3] = test system: V106A RT mutant VSV-G pseudotyped HIV-1 vector; assay type: cell-based; details: read-out: Antiviral EC50 V106A
[4] = test system: Y181C RT mutant VSV-G pseudotyped HIV-1 vector; assay type: cell-based; details: read-out: Antiviral EC50 Y181C
in vitro = details: human
[5] = test system: Y188L RT mutant VSV-G pseudotyped HIV-1 vector; assay type: cell-based; details: read-out: Antiviral EC50 Y188L
[6] = test system: VSVg-pseudotyped HIV-1 vector (pNL4-3LucR+E-); assay: microbe, parasite or virus in culture; assay type: cell-based
pLai3Luc2 HIV-1 vector = assay: microbe, parasite or virus in culture; assay type: cell-based
[7] = test system: VSVg-pseudotyped HIV-1 vector; assay type: cell-based
[8] = test system: HIV-1 vector (NL4-3 Nef + IRES rluc); assay: microbe, parasite or virus in culture; assay type: cell-based
[9] = test system: early and late HIV-1 reverse transcription products; assay: Real-time PCR quantitation of early and late viral DNA in infected 293T cells; assay type: cell-based; details: 5 μM added 1 hr before infection, 24 hrs post infection
[10] = biological target: T1, HIV-1 reverse transcriptase (RT) (Human immunodeficiency virus type 1 group M subtype B, UniProt P03366); assay: biochemical
T1 construct: recombinant purified HIV-1 reverse transcriptase (RT) activity; purchased Ambion, Austin, TX

Protocol for PBMCs: PBMCs were activated in PBMC Growth Medium (RPMI 1640 with 15% FBS, Pen/Strep, 25 mM HEPES, 100 U/ml IL-2) supplemented with 5 μg/ml PHA-P. Two days after activation, the PBMC’s were maintained in the same medium (without PHA-P) for 3 more days. Aliquots of 2x10^4 PBMCs were then plated in 80 μl PBMC Growth Medium in each well of white 96 well plates (CoStar) and returned to the incubator overnight. […] Eight replicate samples were then set up, with 10 μl aliquots of the serially-diluted compounds added to the cells, and preincubated at 37°C for one hour prior to virus challenge. The cells were then challenged with 10 μl per well of the NL4-3 Nef+ IRES rluc virus vector bringing the total volume in each well to 100 μl final. The plates were incubated at 37°C for five days and then viral infection was monitored by adding 100 μl per well of Renilla-Glo Luciferase Reagent (Promega) and measuring the resultant luciferase activities using a Topcount-HTS (PerkinElmer). Cell toxicity was assessed on a duplicate plate of samples by adding 100 μl Cell-Titer Glo Reagent (Promega) and reading on a Topcount-HTS.

| Compound | EC50 [1] [nM] | EC50 [2] [nM] | EC50 [3] [nM] | EC50 [4] [nM] | CC50 at 24 h (in vitro) [nM] | EC50 [5] [nM] | cell toxicity (PBMCs) | decrease of luciferase activity (library screen) [6] | selectivity index [6] | EC50 ([6]; Human immunodeficiency virus 1, HEK-293T, read-out: EC50 (luciferase-based infectivity)) [nM] | selectivity index (pLai3Luc2 HIV-1 vector) | EC50 (pLai3Luc2 HIV-1 vector; Human immunodeficiency virus 1, CEM-GFP, 48 h) [nM] | combination effect with AZT (isobologram) [7] | combination effect with NVP (isobologram) [7] | selectivity index [8] | EC50 ([8]; Human immunodeficiency virus 1, NL43, PBMC, 120 h) [nM] | synthesis of early and late viral DNA products [9] | IC50 [10] [nM] | CC50 (in vitro) [nM] |
| --- | --- | --- | --- | --- | --- | --- | --- | --- | --- | --- | --- | --- | --- | --- | --- | --- | --- | --- | --- |
| Cc1cn([C@H]2C[C@H](N=[N+]=[N-])[C@@H](CO)O2)c(=O)[nH]c1=O [AZT, 3’-azido-3’-deoxythymidine] | 14 ± 3 | 14 ± 2 | 15 ± 1 | 6 | > 50000 | 11 ± 5 | – | – | – | – | – | – | – | – | – | – | – | – | – |
| Clc1ccccc1-c1nc2ccccn2c1NC1CCCCC1 [F2] | 165 ± 39 | 3230 ± 127 | 1280 ± 357 | 1680 ± 271 | – | > 20000 | absence of cell toxicity | more than 50% | 88.1 | 387 ± 46 | 29.5 | 862 ± 88 | synergy | additivity | > 11.6 | 865 ± 222 | blocked the synthesis of both early and late viral DNA products | 2550 ± 365 | – |
| Cc1ccnc2c1NC(=O)c1cccnc1N2C1CC1 [NVP, nevirapine] | 19 ± 2 | 841 ± 49 | 1260 ± 159 | 2879 ± 6 | – | > 20000 | – | – | – | – | – | – | – | – | – | – | – | – | > 50000 |
